Data taken from US20250353891A1 (MEDIMMUNE LIMITED, priority 2022, published 2025).
Starred links: 1 amine or outer side, 2 acyl side, 3 side chain; linkers in the order of their positions; H or OH if unused. Non-standard residues stand in square brackets, D forms with d. Residues, ends and D or L forms follow the SMILES beside them. Groups on a side chain read outwards from the residue. *: point of attachment. C18 diacid = O=C(O)CCCCCCCCCCCCCCCCC(=O)*; γGlu = O=C(O)[C@H](CCC(=O)[*:2])N[*:1]; αMeF = C[C@](N)(Cc1ccccc1)C(=O)O; AEEA = NCCOCCOCC(=O)O; Aib = CC(C)(N)C(=O)O

How the values were obtained:
[1] = molecular target: human glucagon receptor (hGCGR) (Homo sapiens, UniProt P47871); test: cAMP production (HTRF) in CHO cells expressing hGCGR; format: cell-based; set-up: expressed in transfected cells; settings: Table 6, peptides modified at position 17; cAMP in CHO hGCGR cells; geometric mean; read-out: hGluc-R EC50
human glucagon receptor (hGCGR), sequence (P47871 26-477): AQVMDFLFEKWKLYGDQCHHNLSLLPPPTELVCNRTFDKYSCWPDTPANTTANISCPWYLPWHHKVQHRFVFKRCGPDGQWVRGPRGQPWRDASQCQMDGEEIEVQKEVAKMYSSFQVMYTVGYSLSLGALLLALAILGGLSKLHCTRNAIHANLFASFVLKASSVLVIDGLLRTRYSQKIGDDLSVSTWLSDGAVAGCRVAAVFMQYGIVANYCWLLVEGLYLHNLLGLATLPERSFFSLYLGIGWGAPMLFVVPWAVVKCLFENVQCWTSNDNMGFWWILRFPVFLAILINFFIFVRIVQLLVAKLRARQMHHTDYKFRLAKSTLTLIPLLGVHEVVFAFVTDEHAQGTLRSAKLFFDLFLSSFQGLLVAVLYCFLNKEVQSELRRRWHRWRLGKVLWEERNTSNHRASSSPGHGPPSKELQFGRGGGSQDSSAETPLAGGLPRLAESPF
In short: (§1)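 Potency values represent EC50 from 4-parameter logistic curves of HTRF % Delta F signal. Receptor-expressing CHO cells (hGCGR 2×10^5 cells/mL, hGLP-1R 1×10^5 cells/mL) were exposed for 30 min at room temperature before two-step cAMP detection.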

[2] = molecular target: human GLP-1 receptor (hGLP-1R) (Homo sapiens, UniProt P43220); test: cAMP production (HTRF) in CHO cells expressing hGLP-1R; format: cell-based; set-up: expressed in transfected cells; settings: for EC50: Table 6, peptides modified at position 17, cAMP in CHO hGLP-1R cells, geometric mean, read-out: hGLP-1R EC50; for % Relative Potency Ratio: Table 6, % GLP-1R activity relative to GLP-1 / % GlucR activity relative to glucagon
human GLP-1 receptor (hGLP-1R), sequence (P43220 24-463): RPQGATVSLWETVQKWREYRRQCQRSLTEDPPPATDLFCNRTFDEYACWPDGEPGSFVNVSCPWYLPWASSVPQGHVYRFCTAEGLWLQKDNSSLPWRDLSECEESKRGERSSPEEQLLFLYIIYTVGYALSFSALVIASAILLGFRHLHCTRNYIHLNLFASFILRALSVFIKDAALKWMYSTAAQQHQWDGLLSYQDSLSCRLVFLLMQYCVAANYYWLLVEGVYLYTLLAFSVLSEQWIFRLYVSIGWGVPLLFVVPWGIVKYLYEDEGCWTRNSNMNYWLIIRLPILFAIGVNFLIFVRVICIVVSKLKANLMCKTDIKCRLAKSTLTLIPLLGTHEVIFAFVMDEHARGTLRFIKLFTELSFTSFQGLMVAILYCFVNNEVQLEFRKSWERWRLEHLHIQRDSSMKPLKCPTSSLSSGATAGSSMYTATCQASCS
In short: as §1

| EC50 [1] | EC50 [2] | % Relative Potency Ratio [2] | Compound |
| --- | --- | --- | --- |
| 0.23 nM | 0.0441 nM | 10.3 | CC(C)C[C@H](NC(=O)[C@H](Cc1c[nH]c2ccccc12)NC(=O)[C@H](CCCNC(=N)N)NC(=O)[C@@H](NC(=O)[C@H](Cc1ccccc1)NC(=O)[C@H](CC(=O)O)NC(=O)[C@H](CCC(N)=O)NC(=O)[C@H](C)NC(=O)[C@H](CCCNC(=N)N)NC(=O)[C@H](CCCCNC(=O)COCCOCCNC(=O)COCCOCCNC(=O)CC[C@H](NC(=O)CCCCCCCCCCCCCCCCC(=O)O)C(=O)O)NC(=O)[C@@H](NC(=O)[C@H](CC(=O)O)NC(=O)[C@H](CC(C)C)NC(=O)[C@](C)(Cc1ccccc1)NC(=O)[C@H](CCCCN)NC(=O)[C@H](CO)NC(=O)[C@@H](NC(=O)[C@H](CC(=O)O)NC(=O)[C@H](CO)NC(=O)[C@@H](NC(=O)[C@H](Cc1ccccc1)NC(=O)[C@@H](NC(=O)CNC(=O)[C@H](CCC(N)=O)NC(=O)C(C)(C)NC(=O)[C@@H](N)Cc1c[nH]cn1)[C@@H](C)O)[C@@H](C)O)C(C)C)[C@@H](C)O)C(C)C)C(=O)N[C@@H](CC(C)C)C(=O)N[C@@H](CCC(=O)O)C(=O)NC(C)(C)C(=O)NCC(N)=O [Peptide 185] (H-H[Aib]QGTFTSDVSK[αMeF]LDTK([AEEA-AEEA-γGlu-C18 diacid])RAQDFVRWLLE[Aib]G-NH2; N-terminus assumed) |
| 0.101 nM | 0.0449 nM | 4.4 | CC(C)C[C@H](NC(=O)[C@H](CC(C)C)NC(=O)[C@H](Cc1c[nH]c2ccccc12)NC(=O)[C@H](CCCNC(=N)N)NC(=O)[C@@H](NC(=O)[C@H](Cc1ccccc1)NC(=O)[C@H](CC(=O)O)NC(=O)[C@H](CCC(N)=O)NC(=O)[C@H](C)NC(=O)[C@H](CCCNC(=N)N)NC(=O)[C@H](CCCCNC(=O)COCCOCCNC(=O)COCCOCCNC(=O)CC[C@H](NC(=O)CCCCCCCCCCCCCCCCC(=O)O)C(=O)O)NC(=O)[C@@H](NC(=O)[C@H](CC(=O)O)NC(=O)[C@H](CC(C)C)NC(=O)[C@](C)(Cc1ccccc1)NC(=O)[C@H](CCCCN)NC(=O)[C@H](CO)NC(=O)[C@@H](NC(=O)[C@H](CC(=O)O)NC(=O)[C@H](CO)NC(=O)[C@@H](NC(=O)[C@H](Cc1ccccc1)NC(=O)[C@@H](NC(=O)CNC(=O)[C@H](CCC(N)=O)NC(=O)C(C)(C)NC(=O)[C@@H](N)Cc1c[nH]cn1)[C@@H](C)O)[C@@H](C)O)C(C)C)[C@@H](C)O)C(C)C)C(=O)N[C@@H](CCC(=O)O)C(=O)N[C@@H](C)C(=O)NCC(=O)O [Peptide 186] (H-H[Aib]QGTFTSDVSK[αMeF]LDTK([AEEA-AEEA-γGlu-C18 diacid])RAQDFVRWLLEAG-OH; N-terminus assumed) |
| 0.0443 nM | 0.0113 nM | 7.7 | CC(C)C[C@H](NC(=O)[C@H](Cc1c[nH]c2ccccc12)NC(=O)[C@H](CCCNC(=N)N)NC(=O)[C@@H](NC(=O)[C@H](Cc1ccccc1)NC(=O)[C@H](CC(=O)O)NC(=O)[C@H](CCCNC(=N)N)NC(=O)[C@H](C)NC(=O)[C@H](CCCNC(=N)N)NC(=O)[C@H](CCCCNC(=O)COCCOCCNC(=O)COCCOCCNC(=O)CC[C@H](NC(=O)CCCCCCCCCCCCCCCCC(=O)O)C(=O)O)NC(=O)[C@@H](NC(=O)[C@H](CC(=O)O)NC(=O)[C@H](CC(C)C)NC(=O)[C@](C)(Cc1ccccc1)NC(=O)[C@H](CCCCN)NC(=O)[C@H](CO)NC(=O)[C@@H](NC(=O)[C@H](CC(=O)O)NC(=O)[C@H](CO)NC(=O)[C@@H](NC(=O)[C@H](Cc1ccccc1)NC(=O)[C@@H](NC(=O)CNC(=O)[C@H](CCC(N)=O)NC(=O)C(C)(C)NC(=O)[C@@H](N)Cc1c[nH]cn1)[C@@H](C)O)[C@@H](C)O)C(C)C)[C@@H](C)O)C(C)C)C(=O)N[C@@H](CC(C)C)C(=O)N[C@@H](CCC(=O)O)C(=O)NC(C)(C)C(=O)NCC(=O)O [Peptide 189] (H-H[Aib]QGTFTSDVSK[αMeF]LDTK([AEEA-AEEA-γGlu-C18 diacid])RARDFVRWLLE[Aib]G-OH; N-terminus assumed) |
| 0.227 nM | 0.108 nM | 4.2 | CC(C)C[C@H](NC(=O)[C@H](Cc1c[nH]c2ccccc12)NC(=O)[C@H](CCCNC(=N)N)NC(=O)[C@@H](NC(=O)[C@H](Cc1ccccc1)NC(=O)[C@H](CC(=O)O)NC(=O)[C@H](CCC(N)=O)NC(=O)[C@H](C)NC(=O)[C@H](CCCNC(=N)N)NC(=O)[C@H](CCCCNC(=O)COCCOCCNC(=O)COCCOCCNC(=O)CC[C@H](NC(=O)CCCCCCCCCCCCCCCCC(=O)O)C(=O)O)NC(=O)[C@@H](NC(=O)[C@H](CC(=O)O)NC(=O)[C@H](CC(C)C)NC(=O)[C@](C)(Cc1ccccc1)NC(=O)[C@H](CCCCN)NC(=O)[C@H](CO)NC(=O)[C@@H](NC(=O)[C@H](CC(=O)O)NC(=O)[C@H](CO)NC(=O)[C@@H](NC(=O)[C@H](Cc1ccccc1)NC(=O)[C@@H](NC(=O)CNC(=O)[C@H](CCC(N)=O)NC(=O)C(C)(C)NC(=O)[C@@H](N)Cc1c[nH]cn1)[C@@H](C)O)[C@@H](C)O)C(C)C)[C@@H](C)O)C(C)C)C(=O)N[C@@H](CC(C)C)C(=O)NC(C)(C)C(=O)N[C@@H](CCC(=O)O)C(=O)O [Peptide 192] (H-H[Aib]QGTFTSDVSK[αMeF]LDTK([AEEA-AEEA-γGlu-C18 diacid])RAQDFVRWLL[Aib]E-OH; N-terminus assumed) |
| 0.24 nM | 0.027 nM | 17.6 | CC[C@H](C)[C@H](NC(=O)[C@H](CC(C)C)NC(=O)[C@H](Cc1c[nH]c2ccccc12)NC(=O)[C@H](CCCNC(=N)N)NC(=O)[C@@H](NC(=O)[C@H](Cc1ccccc1)NC(=O)[C@H](CC(=O)O)NC(=O)[C@H](CCC(N)=O)NC(=O)[C@H](C)NC(=O)[C@H](CCCNC(=N)N)NC(=O)[C@H](CCCCNC(=O)COCCOCCNC(=O)COCCOCCNC(=O)CC[C@H](NC(=O)CCCCCCCCCCCCCCCCC(=O)O)C(=O)O)NC(=O)[C@H](CO)NC(=O)[C@H](CC(=O)O)NC(=O)[C@H](CC(C)C)NC(=O)[C@](C)(Cc1ccccc1)NC(=O)[C@H](CCCCN)NC(=O)[C@H](CO)NC(=O)[C@@H](NC(=O)[C@H](CC(=O)O)NC(=O)[C@H](CO)NC(=O)[C@@H](NC(=O)[C@H](Cc1ccccc1)NC(=O)[C@@H](NC(=O)CNC(=O)[C@H](CCC(N)=O)NC(=O)C(C)(C)NC(=O)[C@@H](N)Cc1c[nH]cn1)[C@@H](C)O)[C@@H](C)O)C(C)C)C(C)C)C(=O)NC(C)(C)C(=O)N[C@@H](CCC(=O)O)C(=O)O [Peptide 196] (H-H[Aib]QGTFTSDVSK[αMeF]LDSK([AEEA-AEEA-γGlu-C18 diacid])RAQDFVRWLI[Aib]E-OH; N-terminus assumed) |
| 0.112 nM | 0.064 nM | 3.5 | CC(C)C[C@H](NC(=O)[C@H](Cc1c[nH]c2ccccc12)NC(=O)[C@H](CCCNC(=N)N)NC(=O)[C@@H](NC(=O)[C@H](Cc1ccccc1)NC(=O)[C@H](CC(=O)O)NC(=O)[C@H](CCCNC(=N)N)NC(=O)[C@H](C)NC(=O)[C@H](CCCNC(=N)N)NC(=O)[C@H](CCCCNC(=O)COCCOCCNC(=O)COCCOCCNC(=O)CC[C@H](NC(=O)CCCCCCCCCCCCCCCCC(=O)O)C(=O)O)NC(=O)[C@@H](NC(=O)[C@H](CC(=O)O)NC(=O)[C@H](CC(C)C)NC(=O)[C@](C)(Cc1ccccc1)NC(=O)[C@H](CCCCN)NC(=O)[C@H](CO)NC(=O)[C@@H](NC(=O)[C@H](CC(=O)O)NC(=O)[C@H](CO)NC(=O)[C@@H](NC(=O)[C@H](Cc1ccccc1)NC(=O)[C@@H](NC(=O)CNC(=O)[C@H](CCC(N)=O)NC(=O)C(C)(C)NC(=O)[C@@H](N)Cc1c[nH]cn1)[C@@H](C)O)[C@@H](C)O)C(C)C)[C@@H](C)O)C(C)C)C(=O)N[C@@H](CC(C)C)C(=O)NC(C)(C)C(=O)N[C@@H](CCC(=O)O)C(=O)O [Peptide 197] (H-H[Aib]QGTFTSDVSK[αMeF]LDTK([AEEA-AEEA-γGlu-C18 diacid])RARDFVRWLL[Aib]E-OH; N-terminus assumed) |
| 0.302 nM | 0.212 nM | 2.8 | CC[C@H](C)[C@H](NC(=O)[C@H](Cc1ccccc1)NC(=O)[C@H](CC(=O)O)NC(=O)[C@H](CCCNC(=N)N)NC(=O)[C@H](C)NC(=O)[C@H](CCCNC(=N)N)NC(=O)[C@H](CCCCNC(=O)COCCOCCNC(=O)COCCOCCNC(=O)CC[C@H](NC(=O)CCCCCCCCCCCCCCCCC(=O)O)C(=O)O)NC(=O)[C@@H](NC(=O)[C@H](CC(=O)O)NC(=O)[C@H](CC(C)C)NC(=O)[C@](C)(Cc1ccccc1)NC(=O)[C@H](CCCCN)NC(=O)[C@H](CO)NC(=O)[C@@H](NC(=O)[C@H](CC(=O)O)NC(=O)[C@H](CO)NC(=O)[C@@H](NC(=O)[C@H](Cc1ccccc1)NC(=O)[C@@H](NC(=O)CNC(=O)[C@H](CCC(N)=O)NC(=O)C(C)(C)NC(=O)[C@@H](N)Cc1c[nH]cn1)[C@@H](C)O)[C@@H](C)O)C(C)C)[C@@H](C)O)C(=O)N[C@@H](C)C(=O)N[C@@H](Cc1c[nH]c2ccccc12)C(=O)N[C@@H](CC(C)C)C(=O)N[C@@H](CC(C)C)C(=O)NC(C)(C)C(=O)N[C@@H](CCC(=O)O)C(=O)O [Peptide 198] (H-H[Aib]QGTFTSDVSK[αMeF]LDTK([AEEA-AEEA-γGlu-C18 diacid])RARDFIAWLL[Aib]E-OH; N-terminus assumed) |
